The numbers were not newly measured in PubChem BioAssay AID1259410 (Chemical Carcinogenesis Research Information System (CCRIS), 2018), which cites them from elsewhere.

The test system of the data set is rodent tumor promotion studies, tumor incidence. Nature of the data set: CCRIS tumor promotion studies.

In the case of `Clc1cc2c(cc1Cl)Oc1cc(Cl)c(Cl)cc1O2`, the outcome is on record as “integumentary system (skin): papilloma” (Carcinogen: 7,12-DIMETHYLBENZ(A)ANTHRACENE, Doses [Carcinogen]: 0.2 UMOL, Route [Carcinogen]: DERMAL, Route [Promoter]: DERMAL, Species: MOUSE, Strain/Sex: HRS/FEMALE); “ovary: tumor” (Carcinogen: DIETHYLNITROSAMINE [55-18-5], Doses [Carcinogen]: 175 MG/KG BW ONCE AT 10 WK OF AGE (STUDY DURATION: 32 WK), Doses [Promoter]: 1750 NG/KG IN CORN OIL 1X/2 WK FOR 14 WK BEGINNING 18 WK POST CARCINOGEN DOSE (STUDY DURATION: 32 WK), Route [Carcinogen]: INTRAPERITONEAL, Route [Promoter]: GAVAGE, Species: RAT, Strain/Sex: SPRAGUE-DAWLEY/FEMALE); “ovary: tumor” (Carcinogen: DIETHYLNITROSAMINE [55-18-5], Doses [Carcinogen]: 175 MG/KG BW ONCE AT 10 WK OF AGE (STUDY DURATION: 32 WK), Doses [Promoter]: 1750 NG/KG IN CORN OIL 1X/2 WK FOR 30 WK BEGINNING 2 WK POST CARCINOGEN DOSE (STUDY DURATION: 32 WK), Route [Carcinogen]: INTRAPERITONEAL, Route [Promoter]: GAVAGE, Species: RAT, Strain/Sex: SPRAGUE-DAWLEY/FEMALE); “ovary: tumor” (Carcinogen: DIETHYLNITROSAMINE [55-18-5], Doses [Carcinogen]: 175 MG/KG BW ONCE AT 10 WK OF AGE (STUDY DURATION: 48 WK), Doses [Promoter]: 1750 NG/KG IN CORN OIL 1X/2 WK FOR 30 WK BEGINNING 2 WK POST CARCINOGEN DOSE (STUDY DURATION: 48 WK), Route [Carcinogen]: INTRAPERITONEAL, Route [Promoter]: GAVAGE, Species: RAT, Strain/Sex: SPRAGUE-DAWLEY/FEMALE); “ovary: tumor” (Carcinogen: DIETHYLNITROSAMINE [55-18-5], Doses [Carcinogen]: 175 MG/KG BW ONCE AT 10 WK OF AGE (STUDY DURATION: 48 WK), Doses [Promoter]: 1750 NG/KG IN CORN OIL 1X/2 WK FOR 30 WK BEGINNING 18 WK POST CARCINOGEN DOSE (STUDY DURATION: 48 WK), Route [Carcinogen]: INTRAPERITONEAL, Route [Promoter]: GAVAGE, Species: RAT, Strain/Sex: SPRAGUE-DAWLEY/FEMALE); “ovary: tumor” (Carcinogen: DIETHYLNITROSAMINE [55-18-5], Doses [Carcinogen]: 175 MG/KG BW ONCE AT 10 WK OF AGE (STUDY DURATION: 54 WK), Doses [Promoter]: 1750 NG/KG IN CORN OIL 1X/2 WK FOR 30 WK BEGINNING 18 WK POST CARCINOGEN DOSE (STUDY DURATION: 54 WK), Route [Carcinogen]: INTRAPERITONEAL, Route [Promoter]: GAVAGE, Species: RAT, Strain/Sex: SPRAGUE-DAWLEY/FEMALE). The outcome was “ovary: tumor” (Carcinogen: DIETHYLNITROSAMINE [55-18-5], Doses [Carcinogen]: 175 MG/KG BW ONCE AT 10 WK OF AGE (STUDY DURATION: 62 WK), Doses [Promoter]: 1750 NG/KG IN CORN OIL 1X/2 WK FOR 30 WK BEGINNING 2 WK POST CARCINOGEN DOSE (STUDY DURATION: 62 WK), Route [Carcinogen]: INTRAPERITONEAL, Route [Promoter]: GAVAGE, Species: RAT, Strain/Sex: SPRAGUE-DAWLEY/FEMALE); “ovary: tumor” (Carcinogen: DIETHYLNITROSAMINE [55-18-5], Doses [Carcinogen]: 175 MG/KG BW ONCE AT 10 WK OF AGE (STUDY DURATION: 62 WK), Doses [Promoter]: 1750 NG/KG IN CORN OIL 1X/2 WK FOR 60 WK BEGINNING 2 WK POST CARCINOGEN DOSE (STUDY DURATION: 62 WK), Route [Carcinogen]: INTRAPERITONEAL, Route [Promoter]: GAVAGE, Species: RAT, Strain/Sex: SPRAGUE-DAWLEY/FEMALE); “liver: adenoma or carcinoma” (Carcinogen: DIETHYLNITROSAMINE, 55-18-5, Doses [Carcinogen]: 10 MG/KG ONCE, Doses [Promoter]: 0, 150 PPT IN DIET FOR DURATION OF STUDY BEGINNING 30 D POST CARCINOGEN DOSE (STUDY DURATION: 450 D), Route [Carcinogen]: INTRAPERITONEAL, Route [Promoter]: ORAL, Species: RAT, Strain/Sex: SPRAGUE-DAWLEY/FEMALE); “liver: tumor” (Carcinogen: DIETHYLNITROSAMINE, 55-18-5, Doses [Carcinogen]: 90 MG/KG BW ONCE, Doses [Promoter]: 0, 0.5 UG/KG 1/WK FOR 20 WK BEGINNING 3 WK POST CARCINOGEN DOSE (STUDY DURATION: 47 WK), Route [Carcinogen]: INTRAPERITONEAL, Route [Promoter]: INTRAPERITONEAL, Species: MOUSE, Strain/Sex: B6D2F1/MALE); “lung: tumor” (Carcinogen: N-NITROSODIMETHYLAMINE, 62-75-7, Doses [Carcinogen]: 25 MG/KG ONCE AT 5 WK OF AGE, Doses [Promoter]: 0, 0.05 UG/KG/WK FOR 20 WK BEGINNING 3 WK POST CARCINOGEN DOSE (STUDY DURATION: 52 WK), Route [Carcinogen]: INTRAPERITONEAL, Route [Promoter]: INTRAPERITONEAL, Species: MOUSE, Strain/Sex: SWISS/MALE); “lung: tumor” (Carcinogen: N-NITROSODIMETHYLAMINE, 62-75-7, Doses [Carcinogen]: 25 MG/KG ONCE AT 5 WK OF AGE, Doses [Promoter]: 0, 1.6 UG/KG ONCE 3 WK POST CARCINOGEN DOSE (STUDY DURATION: 52 WK), Route [Carcinogen]: INTRAPERITONEAL, Route [Promoter]: INTRAPERITONEAL, Species: MOUSE, Strain/Sex: SWISS/MALE). Moreover, where the note is “Doses [Carcinogen]: 5 UMOL IN 50 µL ACETONE, Doses [Promoter]: 3.75, 7.5, 15, 30 NG 2/WK, Doses [Promoter]: 3.75, 7.5, 15, 30 NG 2/WK, Route [Carcinogen]: DERMAL, Route [Promoter]: DERMAL, Species: MOUSE, Strain/Sex: HRS/FEMALE”, the outcome was “integumentary system (skin): papilloma”.

On to `Cc1cc(=O)[nH]c(=S)[nH]1`, for which the outcome (Carcinogen: 2-(ACETYLAMINO)FLUORINE, Doses [Carcinogen]: IG, Doses [Promoter]: IN DIET, Route [Carcinogen]: GAVAGE, Route [Promoter]: ORAL, Species: RAT, Strain/Sex: MALE,FEMALE) is on record as “thyroid gland”.

As for `NC(CO)C(=O)O` (configuration not stated), the outcome reads like this: (Carcinogen: N-ETHYL-N-HYDROXYETHYLNITROSAMINE, 13147-25-6, Doses [Carcinogen]: 500 PPM IN DIET FOR 2 WK, Doses [Promoter]: 0, 100 MG/100 G BW IN 2 ML 5% SALINE GIVEN 1/2 WK FOR 3 DOSES BEGINNING 1 WK POST CARCINOGEN (STUDY DURATION: 32 WK), Route [Carcinogen]: ORAL, Route [Promoter]: SUBCUTANEOUS, Species: RAT, Strain/Sex: WISTAR/MALE) “kidney: dark cell tumor, clear cell tumor, adenocarcinoma”; (Carcinogen: N-ETHYL-N-HYDROXYETHYLNITROSAMINE, 13147-25-6, Doses [Carcinogen]: 1000 PPM IN DIET FOR 2 WK, Doses [Promoter]: 0, 100 MG/100 G BW IN 2 ML 5% SALINE GIVEN 1/2 WK FOR 3 DOSES BEGINNING 1 WK POST CARCINOGEN (STUDY DURATION: 32 WK), Route [Carcinogen]: ORAL, Route [Promoter]: SUBCUTANEOUS, Species: RAT, Strain/Sex: WISTAR/MALE) “kidney: dark cell tumor, clear cell tumor, adenocarcinoma”.

Turning to `CCCCCCCCCCCCCCCCCC`, the outcome (Carcinogen: 7,12-DIMETHYLBENZ(A)ANTHRACENE, Doses [Carcinogen]: TOP, Route [Carcinogen]: DERMAL, Route [Promoter]: DERMAL, Species: MOUSE, Strain/Sex: MALE,FEMALE) was “integumentary system (skin)”.

For `O=C(CO)[C@@H](O)[C@H](O)[C@H](O)CO`, the outcome (Carcinogen: N-NITROSOMORPHOLINE, 59-89-2, Doses [Carcinogen]: 100 MG/KG/WK IN DRINKING WATER FOR 7 WK, Doses [Promoter]: 0, 120 G/L IN DRINKING WATER AD LIBITUM BEGINNING 2 D AFTER LAST CARCINOGEN DOSE (STUDY DURATION: 501 D), Route [Carcinogen]: ORAL, Route [Promoter]: ORAL, Species: RAT, Strain/Sex: SPRAGUE-DAWLEY/MALE) is “liver: hepatocellular carcinoma”.

With `CC(=O)Nc1ccc2c(c1)C(O)c1ccccc1-2` (configuration not stated), the outcome (Carcinogen: DIETHYLNITROSAMINE, 55-18-5, Doses [Carcinogen]: 200 MG/KG BW IN 0.9% SALINE ONCE, Doses [Promoter]: 0, 0.1 MMOL/KG BW IN POLYETHYLENE GLYCOL FOR 5 D BEGINNING 1 WK POST CARCINOGEN DOSE, 70% HEPATECTOMY PERFORMED 3 D AFTE, Route [Carcinogen]: INTRAPERITONEAL, Route [Promoter]: GAVAGE, Species: RAT, Strain/Sex: SPRAGUE-DAWLEY/MALE) is given as “liver: hepatocellular carcinoma”.

Take `CC(C)(C)CC(C)(C)c1ccc(O)cc1`: the outcome (Carcinogen: N-ETHYL-N'-NITRO-N-NITROSOGUANIDINE, 4245-77-6, Doses [Carcinogen]: 20 MG/KG BW ONCE AT 3 MO OF AGE, Doses [Promoter]: 100 MG/KG BW IN DMSO BEGINNING AT 3 MO OF AGE, 5X/WK FOR FIRST 2 WK, 3X/WK FOR NEXT 11 WK, 2X/WK FOR STUDY DURATION (STU, Route [Carcinogen]: INTRAUTERINE, Route [Promoter]: SUBCUTANEOUS, Species: RAT, Strain/Sex: DONRYU/FEMALE) was “uterus: adenocarcinoma”; the outcome (Doses [Carcinogen]: 20 MG/KG ONCE AT 11 WK OF AGE, Doses [Promoter]: 0, 100 MG/KG/D IN DMSO, EVERY OTHER DAY POSTNATAL DAYS 1 THROUGH 5 (STUDY DURATION: 15 MO), Route [Carcinogen]: INTRAUTERINE, Route [Promoter]: SUBCUTANEOUS, Species: RAT, Strain/Sex: DONRYU/FEMALE) is “uterus: adenocarcinoma”; the outcome (Doses [Carcinogen]: 20 MG/KG ONCE AT 11 WK OF AGE, Doses [Promoter]: 0, 100 MG/KG/D IN DMSO, EVERY OTHER DAY POSTNATAL DAYS 1 THROUGH 15 (STUDY DURATION: 15 MO), Route [Carcinogen]: INTRAUTERINE, Route [Promoter]: SUBCUTANEOUS, Species: RAT, Strain/Sex: DONRYU/FEMALE) was “uterus: adenocarcinoma”.
